Source: patent publication US8188287B2, “Piperidyl acrylamide antagonists of CCR2” (Janssen Pharmaceutica N.V., priority 2008, dated 2012)

These molecules were tested against T1, CCR2 (Homo sapiens, UniProt P41597) (assay: MCP-1 Receptor Binding Assay in THP-1 Cells). Conditions: 125I labeled MCP-1 0.5 nM, 2 hours at 30° C., read-out: Inhibition of MCP-1 Binding IC50.
T1 construct: host or cells: THP-1 (human monocytic cell line)
T1 sequence (P41597 whole entry): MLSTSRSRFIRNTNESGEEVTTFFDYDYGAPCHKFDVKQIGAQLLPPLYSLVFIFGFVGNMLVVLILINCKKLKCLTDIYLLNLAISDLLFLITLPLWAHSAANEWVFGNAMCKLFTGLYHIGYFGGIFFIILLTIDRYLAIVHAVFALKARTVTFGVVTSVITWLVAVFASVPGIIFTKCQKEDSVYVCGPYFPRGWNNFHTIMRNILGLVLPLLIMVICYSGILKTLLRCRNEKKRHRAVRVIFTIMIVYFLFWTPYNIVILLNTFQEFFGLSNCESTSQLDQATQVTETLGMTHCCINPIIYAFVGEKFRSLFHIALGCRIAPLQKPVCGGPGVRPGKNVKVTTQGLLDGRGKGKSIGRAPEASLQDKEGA
Experimental: MCP-1 Receptor Binding Assay in THP-1 Cells
Human monocytic cell line THP-1 cells were obtained from American Type Culture Collection (Manassas, Va., USA). The THP-1 cells were grown in RPMI-1640 (RPMI: Roswell Park Memorial Institute Medium-cell culture growth media) supplemented with 10% fetal bovine serum in a humidified 5% CO2 atmosphere at 37° C. The cell density was maintained […].
THP-1 (cells were incubated with 0.5 nM ^125I labeled MCP-1 (Perkin-Elmer Life Sciences, Inc. Boston, Mass.) in the presence of varying concentrations of either unlabeled MCP-1 (R & D Systems, Minneapolis, Minn.) or test compound for 2 hours at 30° C. in a 96 well plate. Cells were then harvested onto a filter plate, dried, and 20 μL of Microscint 20 was added to each well. Plates were counted in a TopCount NXT, Microplate Scintillation & Luminescence Counter (Perkin-Elmer Life Sciences, Inc. Boston, Mass.). Blank values (buffer only) were subtracted from all values and drug treated values were compared to vehicle treated values. 1 μM cold MCP-1 was used for nonspecific binding.
Table 1 lists IC50 values for inhibition of MCP-1 binding to CCR2 obtained for test compounds of the invention. Where an IC50 value was not obtained for a particular compound, the percent inhibition is provided at a test concentration of 25 μM. TABLE 1 Inhibition of MCP-1 Binding IC50 (μM)
For `O=C(O)C(NN1CCC(c2c[nH]c3ccccc23)CC1)C1CCN(C(=O)/C=C/c2cc(F)c(F)c(F)c2)CC1` (racemic) [Compound 5d, [4-(1H-Indol-3-yl)-piperidin-1-ylamino]-{1-[3-(3,4,5-trifluoro-phenyl)-acryloyl]-piperidin-4-yl}-acetic acid], the IC50 was 640 nM. In the case of `O=C(/C=C/c1cc(F)c(F)c(F)c1)N1CCC(NN2CCC(c3c[nH]c4ccccc34)CC2)CC1` [Compound 3a, 1-{4-[4-(1H-Indol-3-yl)-piperidin-1-ylamino]-piperidin-1-yl}-3-(3,4,5-trifluoro-phenyl)-propenone], the IC50 is reported as 1600 nM. Molecule `O=C(/C=C/c1cc(F)c(F)c(F)c1)N1CCC(N(CC(O)CO)N2CCC(c3c[nH]c4ccccc34)CC2)CC1` (stereo not shown) [Compound 4d, 1-(4-{(2,3-Dihydroxy-propyl)-[4-(1H-indol-3-yl)-piperidin-1-yl]-amino}-piperidin-1-yl)-3-(3,4,5-trifluoro-phenyl)-propenone] has an IC50 of 1400 nM.

Same assay, conditions: test concentration of 25 μM, 125I labeled MCP-1 0.5 nM
In the case of `CN(C1CCN(C(=O)/C=C/c2cc(F)c(F)c(F)c2)CC1)N1CCC(c2c[nH]c3ccccc23)CC1` [Compound 4a, 1-(4-{[4-(1H-Indol-3-yl)-piperidin-1-yl]-methyl-amino}-piperidin-1-yl)-3-(3,4,5-trifluoro-phenyl)-propenone], the “Inhibition of MCP-1 Binding Inh (%)” value is reported as 59%. In the case of `CCN(C1CCN(C(=O)/C=C/c2cc(F)c(F)c(F)c2)CC1)N1CCC(c2c[nH]c3ccccc23)CC1` [Compound 4b, 1-(4-{Ethyl-[4-(1H-indol-3-yl)-piperidin-1-yl]-amino}-piperidin-1-yl)-3-(3,4,5-trifluoro-phenyl)-propenone], the “Inhibition of MCP-1 Binding Inh (%)” value is reported as 34%. For `CC(C)CN(C1CCN(C(=O)/C=C/c2cc(F)c(F)c(F)c2)CC1)N1CCC(c2c[nH]c3ccccc23)CC1` [Compound 4c, 1-(4-{[4-(1H-Indol-3-yl)-piperidin-1-yl]-isobutyl-amino}-piperidin-1-yl)-3-(3,4,5-trifluoro-phenyl)-propenone], the “Inhibition of MCP-1 Binding Inh (%)” value was 0%. For `O=C(/C=C/c1cc(F)c(F)c(F)c1)N1CCC(N(Cc2ncc[nH]2)N2CCC(c3c[nH]c4ccccc34)CC2)CC1` [Compound 4e, 1-(4-{(1H-Imidazol-2-ylmethyl)-[4-(1H-indol-3-yl)-piperidin-1-yl]-amino}-piperdin-1-yl)-3-(3,4,5-trifluoro-phenyl)-propenone], the “Inhibition of MCP-1 Binding Inh (%)” value was 20%.
